This experiment concerns taxane site of assembled cross-linked MTs. Nature of the experiment: Displacement of FTX2 from the taxane site (fluorescence polarization). Type of experiment: binding, calf. As to conditions: for incremental binding free energy (ΔΔG), PTX-to-derivative modification: 35 °C; for ΔH 0 app: Van't Hoff analysis, 26–42 °C; for ΔG 0 app at 26 °C: from binding constant, −RT Ln Ka; for ΔS 0 app: slope of ΔG0app versus T. The method, then:
Purified calf brain tubulin and chemicals were obtained as previously described. Tau-mCherry was expressed and purified as described previously. Human Kif5B-EGFP (amino acids 1-905), containing a C terminal fluorescent-tag followed by a 3C protease cleavage site and a 6 × His-tag was expressed and purified as in with some modifications. Prior to purification, cells were resuspended in 1:1 ratio of lysis buffer (30 mM HEPES pH 7.5, 300 mM NaCl, 0.5 mM ATP, 5% glycerol, 20 mM imidazole, […]) supplemented with 1× Protease inhibitor cocktail and benzonase to the final concentration of 25 units/ml. Cells were homogenized by repeated pipetting. Cells were lysed by spinning for 45 min at 40,000 rpm in 45 Ti fixed-angle rotor (Beckman Coulter) at 4 °C. The supernatant was incubated with pre-equilibrated HisPUR NiNTA agarose resin (Thermo Fisher Scientific) for 1 h in a tightly closed gravity-flow column (Thermo Fisher Scientific) at 4 °C by slowly rotating. Subsequently, the resin was washed once lysis buffer and then with buffer B (30 mM HEPES pH 7.5, 300 mM NaCl, 0.5 mM ATP, 5% glycerol, 30 mM imidazole, […]). The protein was eluted from the resin after an overnight cleavage of the 6 × His-tag with 3C HRV protease in lysis buffer at 4 °C. The eluted protein was further purified via size exclusion chromatography on Superdex 200 10/300 GL column equilibrated in exclusion buffer (30 mM HEPES pH 7.5, 300 mM NaCl, 0.5 mM ATP, 5% glycerol, […]). Peak fractions were analyzed via SDS-PAGE, pooled and the protein was concentrated with Amicon Ultra-15 Centrifugal Filter tubes (Millipore). Purified proteins were aliquoted, snap-frozen in liquid N2, and stored at −80 °C.
The equilibrium binding constant of 1a and 1b to the taxane site of assembled MTs were determined by the displacement of FTX2 from the taxane site in cross-linked MTs. The displacement isotherm of each ligand was measured at least three times in two different plates with a fluorescence polarization microplate reader, as described. A mixture of 50 nM taxane binding sites and 50 nM FTX2 in GAB buffer was sampled in a 96-well plate. […] After mixing the samples for 10 min by shaking at 250 rpm, they were incubated 20 min at the desired temperatures (26, 35 or 42 °C) and their anisotropies were measured using a Spark Tecan plater reader in fluorescence polarization at emission of 535 nm and excitation of 485 nm. A sample containing 50 nM taxane binding sites was employed as blank, and a 50 nM solution of FTX2 in GAB, 0.1 mM GTP was employed as anisotropy standard. G factor was calculated as a mean over several cells in different conditions. The molar saturation fraction, X b , of the probe for each competitor concentration is calculated from the polarization values measured, P. Measurements of the polarization of FTX2 completely displaced (P 0 ) and, in absence of the competitor ligand (P sat), are required for data processing. The binding of FTX2 in the presence of the competitor ligand (X b = (P–P 0 /P sat – P 0 ) · X sat) was calculated and best fitted to the equilibrium binding constant of the competitor assuming unitary stoichiometry and the binding constant of the reference ligand (FTX2) with a PC program (Equigra v5).
Once the equilibrium binding constants are measured at different temperatures, the standard free energy of binding at a given temperature is calculated from the binding constant as ΔG 0app = −RT Ln K a, the standard enthalpy of the binding reaction is calculated from the representation of Ln K a versus 1/T (Van’t Hoff representation), and the slope of this representation multiplied by −R is equal to −ΔH 0app. The standard entropy of binding to ΔS 0app is calculated from the slope of the linear regression of ΔG 0app versus T.
(Polarisation of emitted light reports the rotation of a fluorescent probe.)

3 compounds from paper PMC13492380, “Dissecting Structural and Functional Determinants of Microtubules Stabilization through Guided Chemical Modulation” (Journal of Medicinal Chemistry, 2026) can be followed below.

`CC(=O)OC1C(=O)C2(C)C(OC(=O)CCCCC(=O)OC3CCc4ccccc43)CC3OCC3(OC(C)=O)C2C(OC(=O)c2ccccc2)C2(O)CC(OC(=O)C(O)C(NC(=O)c3ccccc3)c3ccccc3)C(C)=C1C2(C)C` (centres unmarked) [1a, 7-O-(6″-O-(2‴,3‴-Dihydroinden-1‴-yl)hexanedioyl) Paclitaxel]: the “fold lower binding constant than PTX” value is on record as about 100 fold; the “incremental binding free energy (ΔΔG), PTX-to-derivative modification” value turned out to be 9.8 kJ mol^–1; the “ΔH 0 app” value is “–24 ± 4 kJ mol^–1”; the “ΔG 0 app at 26 °C” value is reported as “–31.9 ± 0.1 kJ mol^–1”. Further, the “ΔS 0 app” value is listed as “–27 ± 5 J mol ^aK^–1”.
In the same order, the values of `COc1ccc2c(c1)CC(NC(=O)CCCCCCCC(=O)OC1CC3OCC3(OC(C)=O)C3C(OC(=O)c4ccccc4)C4(O)CC(OC(=O)C(O)C(NC(=O)c5ccccc5)c5ccccc5)C(C)=C(C(OC(C)=O)C(=O)C13C)C4(C)C)CC2` [1b, 7-O-((S)-9″-(7‴-Methoxy-1‴,2‴,3‴,4‴-tetrahydronaphthalen-2‴-yl)amino) −9″-oxononanoyl) Paclitaxel] are about 100 fold, 12.8 kJ mol^–1, “–35 ± 7 kJ mol^–1”, “–28.9 ± 0.3 kJ mol^–1” and 20 ± 5 J mol ^aK^–1.
As to `CC(=O)O[C@H]1C(=O)[C@]2(C)[C@@H](OC(=O)[C@H](C)NC(=O)c3ccc(-c4c5cc(F)c(=O)cc-5oc5cc(O)c(F)cc45)c(C(=O)O)c3)C[C@H]3OC[C@@]3(OC(C)=O)[C@H]2[C@H](OC(=O)c2ccccc2)[C@]2(O)C[C@H](OC(=O)[C@H](O)[C@@H](NC(=O)c3ccccc3)c3ccccc3)C(C)=C1C2(C)C` [FTX2, Flutax2], the “incremental binding free energy (ΔΔG), PTX-to-derivative modification” value is listed as −0.3 kJ mol^–1.
